From ChEMBL document CHEMBL4041509, “Structure-activity relationship study of novel 2-aminobenzofuran derivatives as P-glycoprotein inhibitors” (Eur J Med Chem, 2017)
Active and inactive are the calls of the source. No cut-off for these calls is given here.

Assays:
[1] = molecular target: T1, ATP-dependent translocase ABCB1 (Homo sapiens, UniProt P08183); experiment: Inhibition of ABCB1 (unknown origin) expressed in human Flp-In-293 cells assessed as potentiation of vincristine-induced cytotoxicity by SRB assay; format: cell-based
[2] = molecular target: T1, ATP-dependent translocase ABCB1; experiment: Inhibition of ABCB1 (unknown origin) expressed in Flp-In-293 cells assessed as increase in calcein-AM uptake at 5 uM preincubated for 30 mins followed by calcein-AM addition measured after 30 mins by fluorescence spectrometric method relative to control; format: cell-based; conditions: 0.5 h
[3] = molecular target: T1, ATP-dependent translocase ABCB1; experiment: Inhibition of ABCB1 (unknown origin) expressed in Flp-In-293 cells assessed as increase in calcein-AM uptake at 10 uM preincubated for 30 mins followed by calcein-AM addition measured after 30 mins by fluorescence spectrometric method relative to control; format: cell-based; conditions: 0.5 h
HEK293 [4] = experiment: Cytotoxicity against human Flp-In-293 cells assessed as reduction in cell viability by SRB assay; format: cell-based
HEK293 [5] = experiment: Cytotoxicity against human Flp-In-293 cells expressing MDR1 assessed as reduction in cell viability by SRB assay; format: ADME, cell-based
HeLa S3 = experiment: Cytotoxicity against human HeLaS3 assessed as reduction in cell viability by SRB assay; format: cell-based
[6] = Cytotoxicity against human KBVIN assessed as reduction in cell viability by SRB assay; format: cell-based
[7] = molecular target: T1, ATP-dependent translocase ABCB1; experiment: Inhibition of ABCB1 (unknown origin) expressed in human Flp-In-293 cells assessed as potentiation of vincristine-induced cytotoxicity at 1 uM by SRB assay relative to control; format: cell-based
HEK293 [8] = experiment: Potentiation of vincristine-induced cytotoxicity against human Flp-In-293 cells at 1 uM by SRB assay relative to control; format: functional
HEK293 [9] = experiment: Potentiation of vincristine-induced cytotoxicity against human Flp-In-293 cells at 2.5 uM by SRB assay relative to control; format: functional
HEK293 [10] = experiment: Potentiation of paclitaxel-induced cytotoxicity against human Flp-In-293 cells at 1 uM by SRB assay relative to control; format: functional
HEK293 [11] = experiment: Potentiation of paclitaxel-induced cytotoxicity against human Flp-In-293 cells at 2.5 uM by SRB assay relative to control; format: functional
HEK293 [12] = experiment: Potentiation of doxorubicin-induced cytotoxicity against human Flp-In-293 cells at 1 uM by SRB assay relative to control; format: functional
HEK293 [13] = experiment: Potentiation of doxorubicin-induced cytotoxicity against human Flp-In-293 cells at 2.5 uM by SRB assay relative to control; format: functional
[14] = molecular target: T1, ATP-dependent translocase ABCB1; experiment: Inhibition of ABCB1 (unknown origin) expressed in human Flp-In-293 cells assessed as potentiation of vincristine-induced cytotoxicity at 2.5 uM by SRB assay relative to control; format: cell-based
[15] = molecular target: T1, ATP-dependent translocase ABCB1; experiment: Inhibition of ABCB1 (unknown origin) expressed in human Flp-In-293 cells assessed as potentiation of paclitaxel-induced cytotoxicity at 1 uM by SRB assay relative to control; format: cell-based
[16] = molecular target: T1, ATP-dependent translocase ABCB1; experiment: Inhibition of ABCB1 (unknown origin) expressed in human Flp-In-293 cells assessed as potentiation of paclitaxel-induced cytotoxicity at 2.5 uM by SRB assay relative to control; format: cell-based
[17] = molecular target: T1, ATP-dependent translocase ABCB1; experiment: Inhibition of ABCB1 (unknown origin) expressed in human Flp-In-293 cells assessed as potentiation of doxorubicin-induced cytotoxicity at 1 uM by SRB assay relative to control; format: cell-based
[18] = molecular target: T1, ATP-dependent translocase ABCB1; experiment: Inhibition of ABCB1 (unknown origin) expressed in human Flp-In-293 cells assessed as potentiation of doxorubicin-induced cytotoxicity at 2.5 uM by SRB assay relative to control; format: cell-based
Homo sapiens [19] = organism: Homo sapiens; experiment: Inhibition of P-gp in human HeLaS3 cells assessed as potentiation of vincristine-induced cytotoxicity at 1 uM by SRB assay relative to control; format: cell-based
Homo sapiens [20] = organism: Homo sapiens; experiment: Inhibition of P-gp in human HeLaS3 cells assessed as potentiation of vincristine-induced cytotoxicity at 2.5 uM by SRB assay relative to control; format: cell-based
Homo sapiens [21] = organism: Homo sapiens; experiment: Inhibition of P-gp in human HeLaS3 cells assessed as potentiation of paclitaxel-induced cytotoxicity at 1 uM by SRB assay relative to control; format: cell-based
Homo sapiens [22] = organism: Homo sapiens; experiment: Inhibition of P-gp in human HeLaS3 cells assessed as potentiation of paclitaxel-induced cytotoxicity at 2.5 uM by SRB assay relative to control; format: cell-based
Homo sapiens [23] = organism: Homo sapiens; experiment: Inhibition of P-gp in human HeLaS3 cells assessed as potentiation of doxorubicin-induced cytotoxicity at 1 uM by SRB assay relative to control; format: cell-based
Homo sapiens [24] = organism: Homo sapiens; experiment: Inhibition of P-gp in human HeLaS3 cells assessed as potentiation of doxorubicin-induced cytotoxicity at 2.5 uM by SRB assay relative to control; format: cell-based
Homo sapiens [25] = organism: Homo sapiens; experiment: Inhibition of P-gp in human KBVIN cells assessed as potentiation of vincristine-induced cytotoxicity at 1 uM by SRB assay relative to control; format: cell-based
Homo sapiens [26] = organism: Homo sapiens; experiment: Inhibition of P-gp in human KBVIN cells assessed as potentiation of vincristine-induced cytotoxicity at 2.5 uM by SRB assay relative to control; format: cell-based
Homo sapiens [27] = organism: Homo sapiens; experiment: Inhibition of P-gp in human KBVIN cells assessed as potentiation of paclitaxel-induced cytotoxicity at 1 uM by SRB assay relative to control; format: cell-based
Homo sapiens [28] = organism: Homo sapiens; experiment: Inhibition of P-gp in human KBVIN cells assessed as potentiation of paclitaxel-induced cytotoxicity at 2.5 uM by SRB assay relative to control; format: cell-based
Homo sapiens [29] = organism: Homo sapiens; experiment: Inhibition of P-gp in human KBVIN cells assessed as potentiation of doxorubicin-induced cytotoxicity at 1 uM by SRB assay relative to control; format: cell-based
Homo sapiens [30] = organism: Homo sapiens; experiment: Inhibition of P-gp in human KBVIN cells assessed as potentiation of doxorubicin-induced cytotoxicity at 2.5 uM by SRB assay relative to control; format: cell-based
[31] = molecular target: T1, ATP-dependent translocase ABCB1; experiment: Inhibition of ABCB1 (unknown origin) expressed in human Flp-In-293 cells assessed as potentiation of paclitaxel-induced cytotoxicity by SRB assay; format: cell-based
[32] = molecular target: T1, ATP-dependent translocase ABCB1; experiment: Inhibition of ABCB1 (unknown origin) expressed in human Flp-In-293 cells assessed as potentiation of doxorubicin-induced cytotoxicity by SRB assay; format: cell-based
Homo sapiens [33] = organism: Homo sapiens; experiment: Inhibition of P-gp in human HeLaS3 cells assessed as potentiation of paclitaxel-induced cytotoxicity by SRB assay; format: cell-based
Homo sapiens [34] = organism: Homo sapiens; experiment: Inhibition of P-gp in human HeLaS3 cells assessed as potentiation of vincristine-induced cytotoxicity by SRB assay; format: cell-based
Homo sapiens [35] = organism: Homo sapiens; experiment: Inhibition of P-gp in human HeLaS3 cells assessed as potentiation of doxorubicin-induced cytotoxicity by SRB assay; format: cell-based
Homo sapiens [36] = organism: Homo sapiens; experiment: Inhibition of P-gp in human KBVIN cells assessed as potentiation of vincristine-induced cytotoxicity by SRB assay; format: cell-based
Homo sapiens [37] = organism: Homo sapiens; experiment: Inhibition of P-gp in human KBVIN cells assessed as potentiation of paclitaxel-induced cytotoxicity by SRB assay; format: cell-based
Homo sapiens [38] = organism: Homo sapiens; experiment: Inhibition of P-gp in human KBVIN cells assessed as potentiation of doxorubicin-induced cytotoxicity by SRB assay; format: cell-based
HEK293 [39] = experiment: Effect on ABCB1 mRNA expression in human Flp-In-293 cells at 5 uM after 72 hrs by qRT-PCR method; format: functional, cell-based
HEK293 [40] = experiment: Effect on ABCB1 mRNA expression in human Flp-In-293 cells expressing ABCB1 at 5 uM after 72 hrs by qRT-PCR method; format: functional, cell-based

T1 sequence (P08183 whole entry): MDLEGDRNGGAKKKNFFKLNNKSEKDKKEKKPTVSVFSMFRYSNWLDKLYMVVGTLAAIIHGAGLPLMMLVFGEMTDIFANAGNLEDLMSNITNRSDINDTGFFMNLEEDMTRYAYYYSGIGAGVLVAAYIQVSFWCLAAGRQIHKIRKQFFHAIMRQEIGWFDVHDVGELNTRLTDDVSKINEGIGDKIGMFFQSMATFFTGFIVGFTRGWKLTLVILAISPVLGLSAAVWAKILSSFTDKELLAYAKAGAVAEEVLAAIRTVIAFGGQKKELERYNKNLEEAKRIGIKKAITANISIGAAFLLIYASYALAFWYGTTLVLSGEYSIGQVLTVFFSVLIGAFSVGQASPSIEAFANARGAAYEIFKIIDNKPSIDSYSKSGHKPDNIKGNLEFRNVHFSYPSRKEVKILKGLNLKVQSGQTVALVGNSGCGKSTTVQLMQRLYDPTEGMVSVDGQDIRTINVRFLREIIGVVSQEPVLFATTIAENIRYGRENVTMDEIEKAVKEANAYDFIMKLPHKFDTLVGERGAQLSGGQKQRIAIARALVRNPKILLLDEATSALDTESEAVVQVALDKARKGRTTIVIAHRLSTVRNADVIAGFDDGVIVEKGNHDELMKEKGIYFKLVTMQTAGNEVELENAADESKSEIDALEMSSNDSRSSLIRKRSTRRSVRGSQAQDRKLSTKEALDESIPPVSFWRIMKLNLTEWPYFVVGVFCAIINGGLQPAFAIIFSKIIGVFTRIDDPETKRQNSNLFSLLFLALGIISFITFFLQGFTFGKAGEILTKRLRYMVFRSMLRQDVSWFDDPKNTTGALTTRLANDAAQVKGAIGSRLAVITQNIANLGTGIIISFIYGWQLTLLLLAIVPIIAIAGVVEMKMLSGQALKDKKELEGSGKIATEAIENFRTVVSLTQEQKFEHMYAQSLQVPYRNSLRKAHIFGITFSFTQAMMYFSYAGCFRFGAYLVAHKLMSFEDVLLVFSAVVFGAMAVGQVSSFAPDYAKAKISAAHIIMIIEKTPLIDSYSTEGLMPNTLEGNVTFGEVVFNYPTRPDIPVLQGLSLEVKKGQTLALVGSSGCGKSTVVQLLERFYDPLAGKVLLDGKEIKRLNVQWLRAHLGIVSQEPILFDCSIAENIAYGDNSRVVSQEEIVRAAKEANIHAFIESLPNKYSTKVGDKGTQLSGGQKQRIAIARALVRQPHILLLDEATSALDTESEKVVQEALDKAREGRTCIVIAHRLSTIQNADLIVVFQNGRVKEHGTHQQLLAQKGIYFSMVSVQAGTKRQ

With `COc1ccc(-c2cc(OCCN3CCCC3)c3c(-c4cccs4)c(N)oc3c2)cc1OC` the “inhibition (INH)” value [1] was “Dose-dependent effect”, the “fold change (FC)” value [2] was 8.52 and the “fold change (FC)” value [3] was 9.12. The IC50 (HEK293 [4]) was 36.5 µM, the IC50 (HEK293 [5]) was 37 µM and the IC50 (HeLa S3) was 38 µM. For the same molecule, the IC50 [6] was 36.3 µM, the “fold change (FC)” value [7] was 1.69 and the “fold change (FC)” value (HEK293 [8]) was 4.25. For the same molecule, the “fold change (FC)” value (HEK293 [9]) was 8.36, the “fold change (FC)” value (HEK293 [10]) was 0.92 and the “fold change (FC)” value (HEK293 [11]) was 1.38. For the same molecule, the “fold change (FC)” value (HEK293 [12]) was 0.91, the “fold change (FC)” value (HEK293 [13]) was 0.96 and the “fold change (FC)” value [14] was 5.92. For the same molecule, the “fold change (FC)” value [15] was 1.23, the “fold change (FC)” value [16] was 2.65 and the “fold change (FC)” value [17] was 2.78. The “fold change (FC)” value [18] was 3.95, the fold change (FC) (Homo sapiens [19]) was 1.17 and the fold change (FC) (Homo sapiens [20]) was 1.08. It also gave a fold change (FC) (Homo sapiens [21]) of 3.8, a fold change (FC) (Homo sapiens [22]) of 3.97 and a fold change (FC) (Homo sapiens [23]) of 0.9. For the same molecule, the fold change (FC) (Homo sapiens [24]) was 2.71, the fold change (FC) (Homo sapiens [25]) was 25.7 and the fold change (FC) (Homo sapiens [26]) was 34.2. The fold change (FC) (Homo sapiens [27]) was 2.55, the fold change (FC) (Homo sapiens [28]) was 9.27 and the fold change (FC) (Homo sapiens [29]) was 1.51. For the same molecule, the fold change (FC) (Homo sapiens [30]) was 1.88, the “inhibition (INH)” value [31] was “Dose-dependent effect” and the “inhibition (INH)” value [32] was “Dose-dependent effect”. For the same molecule, the inhibition (Homo sapiens [33]) was “Dose-dependent effect”, the inhibition (Homo sapiens [34]) was “Dose-dependent effect” and the inhibition (Homo sapiens [35]) was “Dose-dependent effect”. For the same molecule, the inhibition (Homo sapiens [36]) was “Dose-dependent effect”, the inhibition (Homo sapiens [37]) was “Dose-dependent effect” and the inhibition (Homo sapiens [38]) was “Dose-dependent effect”. The Activity (HEK293 [39]) was “inactive” and the Activity (HEK293 [40]) was “inactive”.
